Laboratory results taken from ChEMBL document CHEMBL1129652, “Substituted 1,2-dihydrophthalazines: potent, selective, and noncompetitive inhibitors of the AMPA receptor” (J Med Chem, 1996).

What follows are molecules tested against Glutamate receptor ionotropic, AMPA (Rattus norvegicus) (UniProt P19491+P19492+P19493+P19490) (assay: Compound at 10 uM of kainic acid).
Type: functional
CNC(=O)N1N=C(c2ccc(N)cc2)c2cc3c(cc2C1C)OCO3 (stereo not drawn) was tested, and the inhibition was 13%.

What follows are molecules tested against Glutamate receptor ionotropic, AMPA (Rattus norvegicus, UniProt P19490+P19491+P19492+P19493).
Description: Inhibitory activity against AMPA receptor currents in rat cortical cells stimulated with 50 uM kainic acid
CC1c2cc3c(cc2C(c2ccc(N)cc2)=NN1C(=O)NC(C)(C)C)OCO3 (stereo not drawn) was tested, and the IC50 was 5.4 µM.
For CC1=NN=C(c2ccc(N)cc2)c2cc3c(cc2C1)OCO3 [GYKI-52466], the IC50 was 10 µM.
CCNC(=O)N1N=C(c2ccc(N)cc2)c2cc3c(cc2C1C)OCO3 (stereo not drawn) was tested, and the IC50 was 7.2 µM.
For CNC(=O)N1N=C(c2ccc(N)cc2)c2cc3c(cc2CC1C)OCO3 (stereo not drawn) [GYKI-53655], the IC50 was 1 µM.
CCCCNC(=O)N1N=C(c2ccc(N)cc2)c2cc3c(cc2C1C)OCO3 (stereo not drawn) gave an IC50 of 1.8 µM.
With CNC(=O)N1N=C(c2ccc(N)cc2)c2cc3c(cc2C1C)OCO3 (stereo not drawn) the IC50 was 23 µM.
For CCCNC(=O)N1N=C(c2ccc(N)cc2)c2cc3c(cc2C1C)OCO3 (stereo not drawn), the IC50 was 2.8 µM.
